Measured values from BindingDB's records for doi:10.1124/jpet.102.046797 (University of Maryland, 2003).
pKi: −log10 of the molar value.

These compounds were tested against T1, Gamma-hydroxybutyrate receptor (Rattus norvegicus, UniProt Q6RY99).
T1 sequence (Q6RY99 whole entry): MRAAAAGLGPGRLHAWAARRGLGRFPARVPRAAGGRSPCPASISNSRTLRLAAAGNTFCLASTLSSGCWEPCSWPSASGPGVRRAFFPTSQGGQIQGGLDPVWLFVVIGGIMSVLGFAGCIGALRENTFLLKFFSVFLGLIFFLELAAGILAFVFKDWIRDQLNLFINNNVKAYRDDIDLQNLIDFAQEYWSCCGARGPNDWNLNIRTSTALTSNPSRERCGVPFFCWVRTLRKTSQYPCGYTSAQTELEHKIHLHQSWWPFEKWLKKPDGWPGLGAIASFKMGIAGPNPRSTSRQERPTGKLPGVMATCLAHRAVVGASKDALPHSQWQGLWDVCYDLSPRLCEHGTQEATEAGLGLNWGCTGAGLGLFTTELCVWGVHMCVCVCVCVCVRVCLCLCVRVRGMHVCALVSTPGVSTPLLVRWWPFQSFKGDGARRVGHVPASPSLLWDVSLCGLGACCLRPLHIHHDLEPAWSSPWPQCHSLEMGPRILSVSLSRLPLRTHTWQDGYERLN

SMILES	pKi
CC(C)(O)CCCC(=O)O [UMB75]	< 5.00
O=C(O)/C=C1/CCCc2ccccc2C1O (centres undefined) [CAS_131413]	5.74
CC(C)(O)CCC(=O)O [UMB68]	< 5.00
O=C(O)CCCCO [UMB58]	< 5.00
